Experimental data: ChEMBL document CHEMBL3044789, “Comparing weed and crop seedling response to pre-emergence pendimethalin application in Corchorus olitorius and Abelmoschus esculentus” (Crop Prot, 2006)

What was measured:
Euphorbia heterophylla [1] = experiment: Herbicidal activity against Euphorbia heterophylla in Corchorus olitorius plots assessed as weed cover at 0.99 kg a.i/ha after 4 weeks (reference value: 20.1+/- 0.57 %); assay type: functional
Corchorus olitorius [2] = experiment: Phytotoxicity in Corchorus olitorius assessed as crop seedling injury at 1.32 kg a.i/ha after 2 weeks relative to untreated control; assay type: organism-based; conditions: in vivo, 336 h
Synedrella nodiflora [3] = experiment: Herbicidal activity against Synedrella nodiflora in Abelmoschus esculentus plots assessed as weed cover at 0.66 kg a.i/ha after 4 weeks (reference value: 22.6 +/- 0.49 %); assay type: functional
Euphorbia heterophylla [4] = experiment: Herbicidal activity against Euphorbia heterophylla in Corchorus olitorius plots assessed as weed cover at 1.32 kg a.i/ha after 7 weeks (reference value: 1.7 +/- 0.56 %); assay type: functional
Abelmoschus esculentus [5] = experiment: Phytotoxicity in Abelmoschus esculentus assessed as crop seedling injury at 0.66 kg a.i/ha after 2 weeks relative to untreated control; assay type: organism-based; conditions: in vivo, 336 h
Cyperus rotundus [6] = experiment: Herbicidal activity against Cyperus rotundus in Abelmoschus esculentus plots assessed as weed cover at 0.66 kg a.i/ha after 4 weeks (reference value: 22.6 +/- 0.49 %); assay type: functional
Corchorus olitorius [7] = experiment: Phytotoxicity in Corchorus olitorius assessed as seedling injury at 0.66 kg a.i/ha applied as solution after 7 weeks relative to control; assay type: organism-based; conditions: in vivo, other, 1176 h
Abelmoschus esculentus [8] = experiment: Phytotoxicity in Abelmoschus esculentus assessed as shoot length at 0.66 kg a.i/ha applied as solution after 7 weeks (reference value: 28.7 +/- 0.34 mm); assay type: organism-based; conditions: in vivo, other, 1176 h
Chromolaena odorata [9] = experiment: Herbicidal activity against Chromolaena odorata in Corchorus olitorius plots assessed as weed cover at 1.32 kg a.i/ha after 7 weeks (reference value: 1.7 +/- 0.56 %); assay type: functional
Corchorus olitorius [10] = experiment: Phytotoxicity in Corchorus olitorius assessed as seedling emergence at 0.33 kg a.i/ha treated to soil after 7 weeks (reference value: 95 +/- 0.05 %); assay type: organism-based; conditions: in vivo, other, 1176 h
Calopogonium mucunoides [11] = experiment: Herbicidal activity against Calopogonium mucunoides in Abelmoschus esculentus plots assessed as weed cover at 0.66 kg a.i/ha after 4 weeks (reference value: 22.6 +/- 0.49 %); assay type: functional
Synedrella nodiflora [12] = experiment: Herbicidal activity against Synedrella nodiflora in Corchorus olitorius plots assessed as weed recovery at 1.32 kg a.i/ha after 2 weeks (reference value: 78.3 +/- 0.74 %); assay type: functional
Calopogonium mucunoides [13] = experiment: Herbicidal activity against Calopogonium mucunoides in Corchorus olitorius plots assessed as weed cover at 1.32 kg a.i/ha after 4 weeks (reference value: 20.1+/- 0.57 %); assay type: functional
Abelmoschus esculentus [14] = experiment: Phytotoxicity in Abelmoschus esculentus assessed as crop seedling injury at 0.33 kg a.i/ha after 2 weeks relative to untreated control; assay type: organism-based; conditions: in vivo, 336 h
Euphorbia heterophylla [15] = experiment: Herbicidal activity against Euphorbia heterophylla in Abelmoschus esculentus plots assessed as weed cover at 1.32 kg a.i/ha after 2 weeks (reference value: 63.5 +/- 0.29 %); assay type: functional
[16] = tested on: Rottboellia cochinchinensis; experiment: Herbicidal activity against Rottboellia cochinchinensis in Corchorus olitorius plots assessed as weed recovery at 0.33 kg a.i/ha after 2 weeks (reference value: 78.3 +/- 0.74 %); assay type: functional
Corchorus olitorius [17] = experiment: Phytotoxicity in Corchorus olitorius assessed as seedling injury at 0.33 kg a.i/ha applied as solution after 7 weeks relative to control; assay type: organism-based; conditions: in vivo, other, 1176 h
Euphorbia heterophylla [18] = experiment: Herbicidal activity against Euphorbia heterophylla in Corchorus olitorius plots assessed as weed cover at 0.99 kg a.i/ha after 7 weeks (reference value: 1.7 +/- 0.56 %); assay type: functional
Talinum fruticosum = experiment: Herbicidal activity against Talinum fruticosum in Corchorus olitorius plots assessed as weed cover at 0.99 kg a.i/ha after 4 weeks (reference value: 20.1+/- 0.57 %); assay type: functional
Synedrella nodiflora [19] = experiment: Herbicidal activity against Synedrella nodiflora in Abelmoschus esculentus plots assessed as weed recovery at 0.33 kg a.i/ha after 2 weeks (reference value: 60.1 +/- 0.46 %); assay type: functional
Corchorus olitorius [20] = experiment: Phytotoxicity in Corchorus olitorius assessed as shoot length at 1.32 kg a.i/ha applied as solution after 7 weeks (reference value: 22.9 +/- 0.8 mm); assay type: organism-based; conditions: in vivo, other, 1176 h
Calopogonium mucunoides [21] = experiment: Herbicidal activity against Calopogonium mucunoides in Corchorus olitorius plots assessed as weed recovery at 1.32 kg a.i/ha after 2 weeks (reference value: 78.3 +/- 0.74 %); assay type: functional
Abelmoschus esculentus [22] = experiment: Phytotoxicity in Abelmoschus esculentus assessed as crop seedling injury at 0.99 kg a.i/ha after 2 weeks relative to untreated control; assay type: organism-based; conditions: in vivo, 336 h
Synedrella nodiflora [23] = experiment: Herbicidal activity against Synedrella nodiflora in Abelmoschus esculentus plots assessed as major weed growth at 0.33 kg a.i/ha after 2 weeks; assay type: functional
Synedrella nodiflora [24] = experiment: Herbicidal activity against Synedrella nodiflora in Corchorus olitorius plots assessed as weed cover at 0.99 kg a.i/ha after 2 weeks (reference value: 81.7 +/- 0.43 %); assay type: functional
Corchorus olitorius [25] = experiment: Phytotoxicity in Corchorus olitorius assessed as shoot length at 0.33 kg a.i/ha applied as solution after 7 weeks (reference value: 22.9 +/- 0.8 mm); assay type: organism-based; conditions: in vivo, other, 1176 h
Euphorbia heterophylla [26] = experiment: Herbicidal activity against Euphorbia heterophylla in Abelmoschus esculentus plots assessed as weed cover at 0.33 kg a.i/ha after 7 weeks (reference value: 14.7 +/- 0.46 %); assay type: functional
Chromolaena odorata [27] = experiment: Herbicidal activity against Chromolaena odorata in Corchorus olitorius plots assessed as weed recovery at 0.99 kg a.i/ha after 2 weeks (reference value: 78.3 +/- 0.74 %); assay type: functional
Synedrella nodiflora [28] = experiment: Herbicidal activity against Synedrella nodiflora in Abelmoschus esculentus plots assessed as weed cover at 1.32 kg a.i/ha after 2 weeks (reference value: 63.5 +/- 0.29 %); assay type: functional
Euphorbia heterophylla [29] = experiment: Herbicidal activity against Euphorbia heterophylla in Abelmoschus esculentus plots assessed as major weed growth at 0.33 kg a.i/ha after 2 weeks; assay type: functional
Euphorbia heterophylla [30] = experiment: Herbicidal activity against Euphorbia heterophylla in Abelmoschus esculentus plots assessed as major weed growth at 1.32 kg a.i/ha after 2 weeks; assay type: functional
Cyperus rotundus [31] = experiment: Herbicidal activity against Cyperus rotundus in Abelmoschus esculentus plots assessed as weed cover at 0.66 kg a.i/ha after 2 weeks (reference value: 63.5 +/- 0.29 %); assay type: functional
Synedrella nodiflora [32] = experiment: Herbicidal activity against Synedrella nodiflora form in Abelmoschus esculentus plots assessed as minor weed growth at 0.66 kg a.i/ha after 2 weeks; assay type: functional
[33] = tested on: Rottboellia cochinchinensis; experiment: Herbicidal activity against Rottboellia cochinchinensis in Corchorus olitorius plots assessed as major weed growth at 0.33 kg a.i/ha after 2 weeks; assay type: functional
Synedrella nodiflora [34] = experiment: Herbicidal activity against Synedrella nodiflora in Abelmoschus esculentus plots assessed as weed cover at 0.33 kg a.i/ha after 2 weeks (reference value: 63.5 +/- 0.29 %); assay type: functional
Commelina diffusa = experiment: Herbicidal activity against Commelina diffusa in Abelmoschus esculentus plots assessed as minor weed growth at 0.66 kg a.i/ha after 2 weeks; assay type: functional
Synedrella nodiflora [35] = experiment: Herbicidal activity against Synedrella nodiflora in Abelmoschus esculentus plots assessed as weed cover at 0.99 kg a.i/ha after 7 weeks (reference value: 14.7 +/- 0.46 %); assay type: functional

## CCC(CC)Nc1c([N+](=O)[O-])cc(C)c(C)c1[N+](=O)[O-] [PENDIMETHALIN]
Euphorbia heterophylla [1]
  Activity: 48.3%
Corchorus olitorius [2]
  Activity: 76.7%
Synedrella nodiflora [3]
  Activity: 47.9%
Euphorbia heterophylla [4]
  Activity: 95%
Abelmoschus esculentus [5]
  Activity: 42.1%
Cyperus rotundus [6]
  Activity: 47.9%
Corchorus olitorius [7]
  Activity: 31.7%
Abelmoschus esculentus [8]
  Activity: 14.7 mm
Chromolaena odorata [9]
  Activity: 95%
Corchorus olitorius [10]
  Activity: 85%
Calopogonium mucunoides [11]
  Activity: 47.9%
Synedrella nodiflora [12]
  Activity: 13.3%
Calopogonium mucunoides [13]
  Activity: 33.3%
Abelmoschus esculentus [14]
  Activity: 39.9%
Euphorbia heterophylla [15]
  Activity: 45%
[16]
  Activity: 31.7%
Corchorus olitorius [17]
  Activity: 18.3%
Euphorbia heterophylla [18]
  Activity: 95%
Talinum fruticosum
  Activity: 48.3%
Synedrella nodiflora [19]
  Activity: 39.2%
Corchorus olitorius [20]
  Activity: 5.3 mm
Calopogonium mucunoides [21]
  Activity: 13.3%
Abelmoschus esculentus [22]
  Activity: 47.9%
Synedrella nodiflora [23]
  Activity: 31 /m2
Synedrella nodiflora [24]
  Activity: 51.7%
Corchorus olitorius [25]
  Activity: 7 mm
Euphorbia heterophylla [26]
  Activity: 90%
Chromolaena odorata [27]
  Activity: 21.7%
Synedrella nodiflora [28]
  Activity: 45%
Euphorbia heterophylla [29]
  Activity: 31 /m2
Euphorbia heterophylla [30]
  Activity: 31 /m2
Cyperus rotundus [31]
  Activity: 50.8%
Synedrella nodiflora [32]
  Activity: 1 /m2
[33]
  Activity: 31 /m2
Synedrella nodiflora [34]
  Activity: 56.8%
Commelina diffusa
  Activity: 1 /m2
Synedrella nodiflora [35]
  Activity: 83.9%
